In patent US10723726B2, “Solid forms of (Z)-4-(5-((3-benzyl-4-oxo-2-thioxothiazolidin-5-ylidene)methyl)furan-2-yl)benzoic acid” (GB006, INC., priority 2015, dated 2020):
“Also recorded” adds a separate entry of the source. Structures can show the parent of a compound that is named as a salt. Where two headings read alike, the source gives them in different places.

Legend:
[1] = Humidity stress at 40° C./75% RH; type: physicochemical; settings: 5-6 days
Experimental: The larger vials were capped, sealed with Parafilm and placed inside an oven at 40° C. for up to 6 days. Salts were then removed from these conditions and changes observed (e.g. color, deliquescence etc.) before being analyzed for weight change and by XRPD. Samples were examined visually after stressing, form composition confirmed by XRPD analysis and weight change recorded (Table 7).

[2] = male, in vivo
Experimental: (§1) In a second experiment, the dose solution was prepared in Tween-80 (0.02%) and 0.5% methyl cellulose in Milli-Q water. IP (2 mg/kg) and IV (1 mg/kg) dose solutions were prepared in a 5% DMSO and 95% PEG-200.
(§2) The PO (2 mg/kg) dose solution was prepared in Tween-80 (0.02%) and 0.5% methyl cellulose in Milli-Q water. The IV (1 mg/kg) dose solution was prepared in a solution of 5% DMSO and 95% PEG-200.
(§3) The routes of administration were namely PO (gavage), IP (bolus) and IV (bolus through tail vein). A total of four SD male rats were used aged between 5-6 weeks. The feeding regimen included 12 h fasting and the feed was provided 2 hrs after the dosage inoculation and water was provided ad libidum. The blood collection schedule for PO/IP was at 0.25, 0.5, 1, 2, 4, 8, 10 and 24 h, and for IV it was at 0.12, 0.25, 0.5, 1, 2, 4, 8 and 24 h. For PO dosage, tween-80 (0.02%) and 0.5% methyl cellulose prepared in milli-Q water were used as vehicles; for IP and IV dosage 5% DMSO and 95% PEG-200 were used as vehicles.
(§4) Stock solution (178 μg/mL) in methanol was further diluted using methanol: water (80:20, v/v) to obtain working solutions in the range of 10.4 to 20745 ng/mL.
(§5) 50 μL of sample was aliquoted in to pre-labeled vials. To it was added 200 μL of 10% tetrahydrofuran containing IS (100 ng/mL; tolbutamide) and mixed well, vortexed for 5 min followed by centrifugation for 5 min at 14000 rpm for at 4° C. Supernatant was separated and 5 μL of same was injected on LC-MS/MS.
(§6) Data Analysis: Individual concentration-time data were analyzed using WinNonlin (Version 5.3) by non-compartmental analysis (NCA) method.
(§7) The routes of administration were namely PO (gavage) and IV (bolus through tail vein). A total of four SD male rats were used aged between 5-6 weeks. The feeding regimen included 12 h fasting and the feed was provided 2 hrs after the dosage inoculation and water was provided ad libitum. The blood collection schedule for PO was at 0.25, 0.5, 1, 2, 4, 8, 10 and 24 h, and for IV it was at 0.12, 0.25, 0.5, 1, 2, 4, 8 and 24 h. For PO dosage, tween-80 (0.02%) and 0.5% methyl cellulose prepared in milli-Q water were used as vehicles; for IV dosage 10% DMSO and 90% PEG-200 were used as vehicles.

[3] = test system: murine melanoma B16-F10 tumors; test: Murine melanoma B16F10 allograft efficacy (Example 19); type: in vivo, C57BL/6 mice; settings: 3 or 30 mg/kg daily for 15 days
Experimental: TUMOR CELLS. B16-F10 cells were cultured in DMEM cell culture medium supplemented with 10% FBS and 1% penicillin-streptomycin. The cells were maintained at 37° C. in […]. When the cells reached 75-80% confluence, they were harvested by trypsinization, washed, and counted. The cells were then re-suspended in serum free medium at a concentration of 0.1 million cells/75 μl.
TUMOR CELL INOCULATION. Cells were inoculated subcutaneously on the flank of black mice. Prior to inoculation, hair was trimmed and skin on the injection site (dorsal right flank) was swabbed with alcohol. Cells in serum free medium (0.1 million cells/75 μl) were mixed with Matrigel at a ratio of 3:1 and a total volume of 100 μl was injected into each animal with a 1 mL BD syringe attached to a 26 G needle.
RANDOMIZATION. Tumors were palpable around Day 7 of inoculation.
STATISTICAL CALCULATIONS. All statistical calculations were performed using Prism 5.0 (GraphPad Software Inc., USA). Comparisons of tumor size measurements during and at the termination of the study were made between the treatment groups and respective vehicle control groups using One Way ANOVA followed by Dunnett's multiple comparison tests. A p-value of less than 0.05 was considered significant.

in vivo [4] = settings: male, Sprague-Dawley, rat
Experimental: as §1, §2, §3, §4, §5, §6, §7

[5] = Histopathology (Example 19); type: in vivo, C57BL/6 mice; settings: also seen in one animal of the control group
Experimental: HISTOPATHOLOGY. Histopathological examination was conducted using liver, kidney, lung, spleen, heart, and stomach samples.

[6] = Aqueous solubility by equilibration, HPLC analysis; type: physicochemical; settings: for Appearance / Soln pH: after slurrying in water 4-5 days; for HPLC purity (%): after slurrying in water 4-5 days (chemical stability)
Experimental: An aliquot of the UHQ water test solvent (1 mL) was added to an accurately weighed sample of the LA1 salts and agitated at ambient temperature for a period of 4 days. A sample was withdrawn, filtered through a […], and analyzed by HPLC. HPLC was used to determine aqueous equilibrium solubility at ambient temperature. […] Samples were slurried in water for 4-5 days before analysis.

in vivo [7] = settings: male, dog; for AUC0-t: AUC0-12 h
Experimental: The PO (2 mg/kg) dose solution of micronized LA1 was prepared in 0.1% Tween-80 0.5% (w/v) and methyl cellulose in water.
The objective of the study was to investigate the preclinical pharmacokinetic profile of LA1 (micronized powder) in Beagle dog. To delineate the plasma concentration vs. time curve and characterize the relevant pharmacokinetic parameters to generate data on the PK properties viz., bioavailability, half-life (b1/2), volume of distribution, Cmax, Tmax, AUC and elimination rate constant of LA1 in Beagle dog.
LA1 was a coarse material which was micronized using laboratory scale ball mill. […] The micronized LA1 was recovered, weighed and stored in glass container at room temperature. For intravenous drug administration, LA1 excipient compatibility assay for dosing in dogs were carried out.
In brief, a known amount of LA1 was loaded to a cylindrical capped container made of stainless steel followed by addition of stainless steel balls. The ball mills were rotated on their axis for total of 60 minutes (6 cycles X 10 minutes). The micronized LA1 was recovered, weighed and stored in glass bottle at room temperature.
Test system: Healthy Beagle dog weighing 10-12 kg (age 10 months), males were used for the study. Crossover design was adopted for the experiments wherein 02 dogs were used in the study for oral and intravenous administration. Both the animals were housed stainless steel cage provided with a hopper to hold pellet feed and a separate water hopper. Temperature and humidity was maintained at 22±3° C. and 40-70%, respectively. The illumination was controlled to give a sequence of 12 h light and 12 h dark cycle. All the animals were adapted to the experimental conditions for at least 5 days prior to dosing. All animals were provided with Pedigree™ standard pellet feed, except for 10 to 12 h before treatment and 4 h after the drug administration. Water was provided ad libidum.
Formulation and drug administration: Exactly 90 mg of the test item LA1 (micronized powder) was weighed and transferred to a mortar and briefly triturated with pestle. Small volume of vehicle [0.5% (w/v) Carboxy methyl cellulose with 0.1% Tween-80] in water was then added slowly with continuous trituration until a uniform suspension was obtained. The content was then transferred into the measuring cylinder. The mortar was rinsed till the complete transfer of test item into the measuring cylinder was ensured. The final volume was then made up to 225 mL with vehicle to get a uniform suspension with desired concentration of 0.4 mg/mL. Dosing formulations were given by oral gavage at a dose volume not exceeding 5 mL/kg.
Intravenous drug formulation: Hemolysis assay using dog whole blood was employed to assess the damage of red blood cells for selection of excipient for intravenous dosing. […] Exactly 22.5 mg of the test item (micronized powder) was weighed into a graduated tube. 2.25 mL of DMSO was added drop wise and mixed by vortex. Then, 40.50 mL of Polyethylene glycol 400 (PEG-400) was added in two to three fragments and vortex intermittently. Then 2.25 mL Ethanol was added drop wise and vortex to get clear solution. The formulation was subjected to ultra-sonication for 5 minutes.
Sample collection: Serial method was used for blood sampling. Blood samples were collected as mentioned in the study design section (7). The blood sample (−1.5 mL) was collected from saphenous vein into labeled tubes, containing 2% w/v K2EDTA solution, as an anticoagulant.

[8] = Sprague-Dawley, rat, ip, 2 mg/kg
[9] = Sprague-Dawley, rat, iv, 1 mg/kg
[10] = Sprague-Dawley, rat, po, 2 mg/kg
[11] = beagle, iv, 0.5 mg/kg, Plasma concentration
[12] = beagle, po, 0.5 mg/kg, Plasma concentration

## O=C(O)c1ccc(-c2ccc(/C=C3\SC(=S)N(Cc4ccccc4)C3=O)o2)cc1 [LA1 meglumine salt]
[1]
  Weight gain (%): 1.4%
  XRPD after stressing: No change
[2]; Sprague Dawley, iv, 1 mg/kg
  Rat Cl: 17.5 mL/min/kg
[2]; Sprague Dawley, rat
  Vss: 0.74 L/kg
[2]; Sprague-Dawley
  Rat Cl: 18 mL/min/kg
[2]; Sprague-Dawley, ip, 2 mg/kg
  Rat F %: 167%
[2]; Sprague-Dawley, iv, 1 mg/kg
  Rat Cl: 17.5 mL/min/kg
[2]; Sprague-Dawley, po, 2 mg/kg
  Rat F %: 37.1%
[2]; Sprague-Dawley, rat
  % F (absolute IP bioavailability): > 100%
  F (absolute oral bioavailability): 37.1%
  Vss: 0.74 L/kg
[2]; [8]
  AUC0-t: 3252 ng·h/mL
  AUC0-∞: 3270 ng·h/mL
  Tlast: 17.0 h
  Tmax: 0.25 h
[2]; [9]
  AUC0-t: 967 ng·h/mL
  AUC0-∞: 978 ng·h/mL
  C0: 2142 ng/mL
  MRT: 0.91 h
  Tlast: 8.00 h
  Vd: 1.85 L/kg
[2]; [10]
  AUC0-t: 722 ng·h/mL
  AUC0-∞: 726 ng·h/mL
  Tlast: 10.0 h
[3]
  growth inhibition of B16-F10 tumors as compared to vehicle control: 58-66%
In vivo [4]; F (absolute oral bioavailability)
  bioavailability: 37%
In vivo [4]; po, 2 mg/kg, MRT
  MRT: 1.54 h
In vivo [4]; po, 2 mg/kg, t1/2,ß
  half-life: 1.6 h
In vivo [4]; po, 2 mg/kg, tmax
  Tmax: 0.5 h
[5]
  microscopic examination of liver tissues: minimal to moderate hepatocellular necrosis in one animal
  tumor metastasis in lung tissue: Tumor metastasis was observed in lung tissue from one animal
[6]; UHQ water, thermodynamic from solid, water, ambient temperature, slurried 4-5 days, corrected for weight of counter-ion, read-out: Aq solub
  solubility: 724 µg/mL
[6]
  Appearance: No change
  Soln pH: 8
  HPLC purity (%): 34.7%

## NC(CO)(CO)CO [tromethamine]
[1]
  XRPD after stressing: phase change; also recorded: New pattern (S)
[6]
  Appearance: Yellow ppt seen
  Soln pH: 8
  HPLC purity (%): 89.7%
[6]; slurrying 4-5 days, XRPD
  physical stability in water: not physically stable in water

## C1CNCCN1 [piperazine]
[1]
  Weight gain (%): −5.5%
  XRPD after stressing: phase change; also recorded: New pattern (R)
[6]
  Appearance: No change
  Soln pH: 8
  HPLC purity (%): 5.31%

## O=C(O)c1ccc(-c2ccc(/C=C3\SC(=S)N(Cc4ccccc4)C3=O)o2)cc1 [LA1 (micronized)]
[2]; Sprague-Dawley
  Rat Cl: 23.4 mL/min/kg
[2]; Sprague-Dawley, rat
  Vss: 2.14 L/kg
[2]; [9]
  AUC0-t: 715 ng·h/mL
  AUC0-∞: 729 ng·h/mL
  C0: 1025 ng/mL
  MRT: 1.47 h
  Tlast: 12.0 h
  Vd: 2.63 L/kg
[2]; [10]
  AUC0-t: 319 ng·h/mL
  AUC0-∞: 336 ng·h/mL
  Tlast: 6.50 h
  Tmax: 0.88 h
In vivo [4]; po, 2 mg/kg, AUC (with PO bioavailability)
  AUC: 0.76 µM·h
In vivo [4]; po, 2 mg/kg, AUC in mM*hr
  AUC: 0.76 µM·h
In vivo [4]; po, 2 mg/kg, MRT (hr)
  MRT: 2.04 h
In vivo [4]; po, 2 mg/kg, Rat F %
  bioavailability: 23%
In vivo [4]; po, 2 mg/kg, t1/2 (hr)
  half-life: 1.1 h
In vivo [7]; Beagle, iv, 0.5 mg/kg, Plasma concentration
  concentration at 12 h: 7.93 ng/mL
In vivo [7]; beagle, Absolute oral bioavailability
  bioavailability: 50.6%
In vivo [7]; beagle, Dog Cl (ml/min/kg)
  clearance: 2.1 mL/min/kg
In vivo [7]; beagle, Dog F % (absolute oral bioavailability)
  bioavailability: 50%
In vivo [7]; beagle, iv, 0.5 mg/kg
  AUC0-t: 1330 ng·h/mL
In vivo [7]; beagle, iv, 0.5 mg/kg, AUC0-inf
  AUC(0-inf): 1350 ng·h/mL
In vivo [7]; beagle, iv, 0.5 mg/kg, AUCinf
  AUC(0-inf): 1350 ng·h/mL
In vivo [7]; beagle, iv, 0.5 mg/kg, C0
  C0: 1330 ng/mL
In vivo [7]; beagle, iv, 0.5 mg/kg, Co/Cmax
  Cmax: 2040 ng/mL
In vivo [7]; [11]
  concentration at 0.05 h: 1570 ng/mL
  concentration at 0.1 h: 897 ng/mL
  concentration at 0.25 h: 717 ng/mL
  concentration at 0.5 h: 505 ng/mL
  concentration at 1 h: 405 ng/mL
In vivo [7]; beagle, po, 0.5 mg/kg, Absolute Bioavailability F %
  bioavailability: 50.6%
In vivo [7]; [12]
  concentration at 4 h: 660 ng/mL
  concentration at 6 h: 211 ng/mL
  concentration at 8 h: 118 ng/mL
  concentration at 12 h: 37.5 ng/mL
In vivo [7]; beagle, po, 2 mg/kg, AUCinf
  AUC(0-inf): 2690 ng·h/mL
In vivo [7]; beagle, po, 2 mg/kg, Cmax
  Cmax: 685 ng/mL
In vivo [7]; beagle, po, 2 mg/kg
  half-life: 2.11 h
In vivo [7]; beagle, po, 3 mg/kg
  Tmax: 4 h
  AUC0-t: 2570 ng·h/mL
  half-life: 2.11 h
In vivo [7]; beagle, po, 3 mg/kg, AUC0-inf
  AUC(0-inf): 2690 ng·h/mL
In vivo [7]; beagle, po, 3 mg/kg, Co/Cmax
  Cmax: 685 ng/mL

## [Ca] [calcium]
[1]
  Weight gain (%): 1.7%
  XRPD after stressing: More disordered
[6]
  Appearance: No change
  Soln pH: 7
  HPLC purity (%): 5.58%
